25 compounds from patent publication US10968225B2, “Compounds and compositions for the treatment of cystic fibrosis” (Fondazione Istituto Italiano Di Tecnologia, priority 2017, dated 2021) can be followed below.

Where a name gives a salt, the structure may show the parent alone.

T1 sequence (P13569 with tags, fused parts or gaps DEL508-508): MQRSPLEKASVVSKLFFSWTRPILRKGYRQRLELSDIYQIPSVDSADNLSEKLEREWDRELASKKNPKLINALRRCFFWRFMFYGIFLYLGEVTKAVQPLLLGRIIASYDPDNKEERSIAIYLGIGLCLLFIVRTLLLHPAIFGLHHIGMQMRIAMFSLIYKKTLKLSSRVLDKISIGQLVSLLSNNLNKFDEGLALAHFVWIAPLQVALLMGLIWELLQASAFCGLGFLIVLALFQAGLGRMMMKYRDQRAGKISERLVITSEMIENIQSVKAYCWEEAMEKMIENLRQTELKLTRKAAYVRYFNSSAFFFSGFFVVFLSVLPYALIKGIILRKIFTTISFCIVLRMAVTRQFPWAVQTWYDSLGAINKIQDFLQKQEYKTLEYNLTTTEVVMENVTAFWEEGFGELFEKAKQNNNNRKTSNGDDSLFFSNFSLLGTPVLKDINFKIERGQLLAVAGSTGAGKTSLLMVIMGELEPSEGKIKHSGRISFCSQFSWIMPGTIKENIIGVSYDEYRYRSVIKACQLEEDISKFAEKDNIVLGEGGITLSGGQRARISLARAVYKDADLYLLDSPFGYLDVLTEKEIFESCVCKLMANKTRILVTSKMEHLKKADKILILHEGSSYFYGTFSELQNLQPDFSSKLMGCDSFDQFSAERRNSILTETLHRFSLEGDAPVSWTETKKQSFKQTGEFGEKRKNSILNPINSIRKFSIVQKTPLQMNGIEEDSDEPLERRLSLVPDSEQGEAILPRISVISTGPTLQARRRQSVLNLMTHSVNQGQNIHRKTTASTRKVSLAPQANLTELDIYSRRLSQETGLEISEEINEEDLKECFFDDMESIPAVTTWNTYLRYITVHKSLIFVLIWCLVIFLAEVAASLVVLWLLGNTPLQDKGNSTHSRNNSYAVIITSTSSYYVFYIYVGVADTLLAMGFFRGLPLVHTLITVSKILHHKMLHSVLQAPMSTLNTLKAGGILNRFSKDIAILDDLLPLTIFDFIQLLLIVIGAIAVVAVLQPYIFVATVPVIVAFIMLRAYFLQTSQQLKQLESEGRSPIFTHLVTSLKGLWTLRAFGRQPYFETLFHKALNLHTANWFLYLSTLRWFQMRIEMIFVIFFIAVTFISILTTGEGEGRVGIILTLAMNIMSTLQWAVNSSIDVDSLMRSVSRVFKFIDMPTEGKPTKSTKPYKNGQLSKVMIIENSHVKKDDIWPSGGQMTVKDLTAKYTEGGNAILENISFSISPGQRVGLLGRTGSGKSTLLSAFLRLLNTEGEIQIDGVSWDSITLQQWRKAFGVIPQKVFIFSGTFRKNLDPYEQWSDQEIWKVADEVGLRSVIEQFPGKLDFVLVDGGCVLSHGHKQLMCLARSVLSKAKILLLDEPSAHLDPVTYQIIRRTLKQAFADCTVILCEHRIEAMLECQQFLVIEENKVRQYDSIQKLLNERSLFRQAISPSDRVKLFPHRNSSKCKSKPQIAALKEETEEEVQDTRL

This assay has as its target T1, mutant CFTR (Homo sapiens, UniProt P13569, DEL508-508).
T1 construct: expressed in transfected cells
The assay can be described thus: Fluorescence (HS-YFP) assay for CFTR activity, corrector assay. The class given is cell-based. The note with it: CFBE41o- and FRT cells with stable expression of mutant CFTR, read-out: activity (EC50).
The term EC50 denotes the concentration giving half of the maximal effect. For `CN(C(=O)c1cccc(-n2nc(C(F)(F)F)c3c2CC2CCC3N2)c1)c1ccc2c(c1)OCO2` (racemic) [Compound 022, N-(Benzo[d][1,3]dioxol-5-yl)-N-methyl-3-(3-(trifluoromethyl)-5,6,7,8-tetrahydro-4,7-epiminocyclohepta[c]pyrazol-1(4H)-yl)benzamide hydrochloride], the half-maximal effective concentration (EC50) was under 1 µM.
For `CN(C(=O)c1cccc(-n2nc(C(F)(F)F)c3c2CC2CCC3N2C)c1)c1ccc2c(c1)OCO2` (racemic) [Compound 023, N-(Benzo[d][1,3]dioxol-5-yl)-N-methyl-3-(9-methyl-3-(trifluoromethyl)-5,6,7,8-tetrahydro-4,7-epiminocyclohepta [c]pyrazol-1(4H)-yl)benzamide], the half-maximal effective concentration (EC50) was under 1 µM.
As for `CCC(C)N1CCc2c(c(C(F)(F)F)nn2-c2cccc(C(=O)N(C)c3ccc4c(c3)OCO4)c2)C1` (racemic) [Compound 024, N-(1,3-Benzodioxol-5-yl)-N-methyl-3-[5-sec-butyl-3-(trifluoromethyl)-6,7-dihydro-4H-pyrazolo[4,3-c]pyridin-1-yl]benzamide], the EC50 was under 1 µM.
Take `CN(C(=O)c1cccc(-n2nc(C(F)(F)F)c3c2C(Oc2cncc(C(=O)O)c2)COC3)c1)c1ccc2c(c1)OC(F)(F)O2` (racemic) [Compound 210, 5-[[1-[3-[(2,2-Difluoro-1,3-benzodioxol-5-yl)-methyl-carbamoyl]phenyl]-3-(trifluoromethyl)-6,7-dihydro-4H-pyrano[4,3-c]pyrazol-7-yl]oxy]pyridine-3-carboxylic acid]: the concentration giving a half-maximal response (EC50) lay in the range of 1 to 2 µM.
On to `CN(C(=O)c1cccc(-n2nc(C(F)(F)F)c3c2C(Oc2ccc(C(=O)O)cn2)COC3)c1)c1ccc2c(c1)OC(F)(F)O2` (racemic) [Compound 213, 6-[[1-[3-[(2,2-Difluoro-1,3-benzodioxol-5-yl)-methyl-carbamoyl]phenyl]-3-(trifluoromethyl)-6,7-dihydro-4H-pyrano[4,3-c]pyrazol-7-yl]oxy]pyridine-3-carboxylic acid], for which the half-maximal effective concentration (EC50) is under 1 µM.
Take `CN(C(=O)c1cccc(-n2nc(C(F)(F)F)c3c2C(Oc2ccc(C(=O)O)cc2)CCC3)c1)c1cnc(OC(F)F)nc1` (racemic) [Compound 219, 4-[[1-[3-[[2-(Difluoromethoxy)pyrimidin-5-yl]-methyl-carbamoyl]phenyl]-3-(trifluoromethyl)-4,5,6,7-tetrahydroindazol-7-yl]oxy]benzoic acid]: the EC50 was 1 to 2 µM.
In the case of `CN(C(=O)c1cccc(-n2nc(C(F)(F)F)c3c2C(Oc2cc(C(=O)O)ccn2)COC3)c1)c1ccc2c(c1)OC(F)(F)O2` (racemic) [Compound 231, 2-[[1-[3-[(2,2-Difluoro-1,3-benzodioxol-5-yl)-methyl-carbamoyl]phenyl]-3-(trifluoromethyl)-6,7-dihydro-4H-pyrano[4,3-c]pyrazol-7-yl]oxy]pyridine-4-carboxylic acid] it was under 1 µM; in that of `CN(C(=O)c1cccc(-n2nc(C(F)F)c3c2C(Oc2ccc(C(=O)O)cc2)CCC3)c1)c1ccc2c(c1)OC(F)(F)O2` (racemic) [Compound 254, (rac)-4-[[1-[3-[(2,2-difluoro-1,3-benzodioxol-5-yl)-methyl-carbamoyl]phenyl]-3-(difluoromethyl)-4,5,6,7-tetrahydroindazol-7-yl]oxy]benzoic acid], under 1 µM; in that of `CN(C(=O)c1cccc(-n2nc(C(F)(F)F)c3c2C(Oc2ccc(C(=O)O)cc2)CCC3)c1)c1cnc2c(c1)CCC2` (racemic) [Compound 258, (rac)-4-[[1-[3-[6,7-dihydro-5H-Cyclopenta[b]pyridin-3-yl(methyl)carbamoyl]phenyl]-3-(trifluoromethyl)-4,5,6,7-tetrahydroindazol-7-yl]oxy]benzoic acid], under 1 µM.
In the case of `CN(C(=O)c1cccc(-n2nc(C(F)(F)F)c3c2C(Oc2ccc(C(=O)O)cc2)CCC3)c1)c1cnc2c(c1)OCC2` (racemic) [Compound 259, (rac)-4-[[1-[3-[2,3-Dihydrofuro[3,2-b]pyridin-6-yl(methyl)carbamoyl]phenyl]-3-(trifluoromethyl)-4,5,6,7-tetrahydroindazol-7-yl]oxy]benzoic acid] it was under 1 µM; in that of `CN(C(=O)c1cccc(-n2nc(C(F)(F)F)c3c2C(Oc2ccc(C(=O)O)cc2)CCC3)c1)c1cnc2c(c1)COC2` (racemic) [Compound 260, (rac)-4-[[1-[3-[5,7-Dihydrofuro[3,4-b]pyridin-3-yl(methyl)carbamoyl]phenyl]-3-(trifluoromethyl)-4,5,6,7-tetrahydroindazol-7-yl]oxy]benzoic acid], 1 to 2 µM; in that of `CN(C(=O)c1cccc(-n2nc(C(F)(F)F)c3c2C(Oc2ccc(C(=O)O)cc2)CCC3)c1)c1ccc2c(c1)OCC2` (racemic) [Compound 261, (rac)-4-[[1-[3-[2,3-Dihydrobenzofuran-6-yl(methyl)carbamoyl]phenyl]-3-(trifluoromethyl)-4,5,6,7-tetrahydroindazol-7-yl]oxy]benzoic acid], under 1 µM.
Turning to `CN(C(=O)c1cccc(-n2nc(C(F)(F)F)c3c2C(Oc2ccc(C(=O)O)cc2)COC3)c1)c1cnc2c(c1)OCC2` (racemic) [Compound 262, 4-[[1-[3-[2,3-Dihydrofuro[3,2-b]pyridin-6-yl(methyl)carbamoyl]phenyl]-3-(trifluoromethyl)-6,7-dihydro-4H-pyrano[4,3-c]pyrazol-7-yl]oxy]benzoic acid], the EC50 is 1 to 2 µM.
Regarding `CN(C(=O)c1cccc(-n2nc(C(F)F)c3c2C(Oc2ccc(C(=O)O)cc2)COC3)c1)c1ccc2c(c1)OC(F)(F)O2` (racemic) [Compound 263, 4-[[1-[3-[(2,2-difluoro-1,3-benzodioxol-5-yl)-methyl-carbamoyl]phenyl]-3-(difluoromethyl)-6,7-dihydro-4H-pyrano[4,3-c]pyrazol-7-yl]oxy]benzoic acid], the concentration giving a half-maximal response (EC50) was under 1 µM.
On to `CN(C(=O)c1cccc(-n2nc(C(F)(F)F)c3c2C(Oc2ccc(C(=O)O)cc2)COC3)c1)c1ccc2c(c1)OCC2` (racemic) [Compound 265, 4-[[1-[3-[2,3-Dihydrobenzofuran-6-yl(methyl)carbamoyl]phenyl]-3-(trifluoromethyl)-6,7-dihydro-4H-pyrano[4,3-c]pyrazol-7-yl]oxy]benzoic acid], for which the half-maximal effective concentration (EC50) is under 1 µM.
In the case of `CN(C(=O)c1cccc(-n2nc(C(F)(F)F)c3c2C(Oc2ccc(C(=O)O)cc2)CCC3)c1)c1cccc(OC(F)F)c1` (racemic) [Compound 266, 4-[[1-[3-[[3-(Difluoromethoxy)phenyl]-methyl-carbamoyl]phenyl]-3-(trifluoromethyl)-4,5,6,7-tetrahydroindazol-7-yl]oxy]benzoic acid] it was 1 to 2 µM.
`CN(C(=O)c1cccc(-n2nc(C(F)(F)F)c3c2C(Oc2ccc(C(=O)O)cc2)CCC3)c1)c1cncc(OC(F)F)c1` (racemic) [Compound 267, 4-[[1-[3-[[5-(Difluoromethoxy)-3-pyridyl]-methyl-carbamoyl]phenyl]-3-(trifluoromethyl)-4,5,6,7-tetrahydroindazol-7-yl]oxy]benzoic acid]: the EC50 was 1 to 2 µM.
Regarding `CN(C(=O)c1cccc(-n2nc(C(F)(F)F)c3c2C(Oc2ccc(C(=O)O)cc2)CCC3)c1)c1ccnc(OC(F)F)c1` (racemic) [Compound 268], the concentration giving a half-maximal response (EC50) is under 1 µM.
Turning to `Cc1nc2ncc(N(C)C(=O)c3cccc(-n4nc(C(F)(F)F)c5c4C(Oc4ccc(C(=O)O)cc4)COC5)c3)cc2o1` (racemic) [Compound 269, 4-[[1-[3-[Methyl-(2-methyloxazolo[4,5-b]pyridin-6-yl)carbamoyl]phenyl]-3-(trifluoromethyl)-6,7-dihydro-4H-pyrano[4,3-c]pyrazol-7-yl]oxy]benzoic acid], the half-maximal effective concentration (EC50) was under 1 µM.
In the case of `CN(C(=O)c1cccc(-n2nc(C(F)(F)F)c3c2C(Oc2ccc(C(=O)O)cc2)COC3)c1)c1ccnc(OC(F)F)c1` (racemic) [Compound 270, 4-[[1-[3-[[2-(Difluoromethoxy)-4-pyridyl]-methyl-carbamoyl]phenyl]-3-(trifluoromethyl)-6,7-dihydro-4H-pyrano[4,3-c]pyrazol-7-yl]oxy]benzoic acid] it was under 1 µM; in that of `CN(C(=O)c1cccc(-n2nc(C(F)(F)F)c3c2C(Oc2ccc(C(=O)O)cc2)CNC3)c1)c1ccc2c(c1)OC(F)(F)O2` (racemic) [Compound 273, 4-[[1-[3-[(2,2-Difluoro-1,3-benzodioxol-5-yl)-methyl-carbamoyl]phenyl]-3-(trifluoromethyl)-4,5,6,7-tetrahydropyrazolo[4,3-c]pyridin-7-yl]oxy]benzoic acid hydrochloride], under 1 µM; in that of `CN(C(=O)c1cccc(-n2nc(C(F)(F)F)c3c2C(Oc2ccc(C(=O)O)cc2)COC3)c1)c1cnc2c(c1)CCC2` (racemic) [Compound 281, 4-[[1-[3-[6,7-Dihydro-5H-cyclopenta[b]pyridin-3-yl(methyl)carbamoyl]phenyl]-3-(trifluoromethyl)-6,7-dihydro-4H-pyrano[4,3-c]pyrazol-7-yl]oxy]benzoic acid], 1 to 2 µM.
Take `Cc1cc2ncc(N(C)C(=O)c3cccc(-n4nc(C(F)(F)F)c5c4C(Oc4ccc(C(=O)O)cc4)COC5)c3)cn2n1` (racemic) [Compound 294, 4-[[1-[3-[Methyl-(2-methylpyrazolo[1,5-a]pyrimidin-6-yl)carbamoyl]phenyl]-3-(trifluoromethyl)-6,7-dihydro-4H-pyrano[4,3-c]pyrazol-7-yl]oxy]benzoic acid]: the EC50 is under 1 µM.
Take `CN(C(=O)c1cccc(-n2nc(C(F)(F)F)c3c2C(Oc2ncc(C(=O)O)cn2)COC3)c1)c1ccc2c(c1)OC(F)(F)O2` (racemic) [Compound 295, 2-[[1-[3-[(2,2-Difluoro-1,3-benzodioxol-5-yl)-methyl-carbamoyl]phenyl]-3-(trifluoromethyl)-6,7-dihydro-4H-pyrano[4,3-c]pyrazol-7-yl]oxy]pyrimidine-5-carboxylic acid]: the half-maximal effective concentration (EC50) was in the range of 1 to 2 µM.
In the case of `CN(C(=O)c1cccc(-n2nc(C(F)(F)F)c3c2C(Oc2ncc(C(=O)O)cn2)COC3)c1)c1ccc2c(c1)OCC2` (racemic) [Compound 296, 2-[[1-[3-[2,3-Dihydrobenzofuran-6-yl(methyl)carbamoyl]phenyl]-3-(trifluoromethyl)-6,7-dihydro-4H-pyrano[4,3-c]pyrazol-7-yl]oxy]pyrimidine-5-carboxylic acid] it was under 1 µM.
